Reference: patent US20240384350A1, “METHODS OF TREATING CANCER WITH KINASE INHIBITORS” (BOARD OF REGENTS, THE UNIVERSITY OF TEXAS SYSTEM, priority 2021, published 2024)

Legend:
Assay in all cases: Ba/F3 drug screening, Cell Titer Glo, IC50 Mut/WT
Assay type in all cases: cell-based
[1] = target: T1, EGFR G719S T790M (Homo sapiens, UniProt P00533, G719S/T790M); settings: T790M-like-3S, 72 hours
T1 construct: expressed in transfected cells; host or cells: Ba/F3

[2] = target: T2, EGFR G719A (Homo sapiens, UniProt P00533, G719A); settings: Ba/F3 cells, EGFR G719A (PACC), Mut/WT
T2 construct: expressed in transfected cells; host or cells: Ba/F3

[3] = target: T3, EGFR E709K G719S (Homo sapiens, UniProt P00533, E709K/G719S); settings: Ba/F3 cells, EGFR E709K G719S (PACC), Mut/WT
T3 construct: expressed in transfected cells; host or cells: Ba/F3

[4] = target: T4, EGFR L718V (Homo sapiens, UniProt P00533, L718V); settings: Ba/F3 cells, EGFR L718V (PACC), Mut/WT
T4 construct: expressed in transfected cells; host or cells: Ba/F3

[5] = target: T5, EGFR Ex19del G796S (Homo sapiens, UniProt P00533, DEL746-750/G796S); settings: Ba/F3 cells, EGFR Ex19del G796S (PACC), Mut/WT
T5 construct: expressed in transfected cells; host or cells: Ba/F3
Procedure: (§1) Data represent the ratio of the IC50 value for a given TKI for cells with a PACC EGFR mutation to the IC50 value for cells with wildtype EGFR.
(§2) Ba/F3 cell generation, drug screening, and IC50 approximations. Ba/F3 cells were obtained as a gift from Dr. Gordon Mills (MD Anderson Cancer Center), and maintained in RPMI (Sigma) containing 10% FBS, 1% penicillin/streptomycin, and 10 ng/ml recombinant mIL-3 (R&D Biosystems). To establish stable Ba/F3 cell lines, Ba/F3 cells were transduced with retroviruses containing mutant EGFR plasmids for 12-24 hours.
(§3) After 48-72 hours of transduction, 2 μg/ml puromycin (Invitrogen) was added to Ba/F3 cell lines in complete RPMI. To select for EGFR positive cell lines, cells were stained with PE-EGFR (Biolegend) and sorted by FACS. After sorting, EGFR positive cells were maintained in RPMI containing 10% FBS, 1% penicillin/streptomycin, and 1 ng/ml EGF to support cell viability. Drug screening was performed as previously described^41,42. Shortly, cells were plated in 384-well plates (Greiner Bio-One) at 2000-3000 cells per well in technical triplicate. Seven different concentrations of TKIs or DMSO vehicle were added to reach a final volume of 40 μL per well. After 72 hours, 11 μL of Cell Titer Glo (Promega) was added to each well. Plates were incubated for a minimum of 10 minutes, and bioluminescence was determined using a FLUOstar OPTIMA plate reader (BMG LABTECH). Raw bioluminescence values were normalized to DMSO control treated cells, and values were plotted in GraphPad Prism. […] Drug screens were performed in technical triplicate on each plate and either duplicate or triplicate biological replicates.

[6] = target: T6, EGFR Ex19del T790M C797S (Homo sapiens, UniProt P00533, C797S/DEL746-750/T790M); settings: T790M-like-3R, 72 hours
T6 construct: expressed in transfected cells; host or cells: Ba/F3
Procedure: (§4) Data represent the ratio of the IC50 value for a given TKI for cells with a T790M-like-3R EGFR mutation to the IC50 value for cells with wildtype EGFR.
as §2
(§5) After 48-72 hours of transduction, 2 μg/ml puromycin (Invitrogen) was added to Ba/F3 cell lines in complete RPMI. To select for EGFR positive cell lines, cells were stained with PE-EGFR (Biolegend) and sorted by FACS. After sorting, EGFR positive cells were maintained in RPMI containing 10% FBS, 1% penicillin/streptomycin, and 1 ng/ml EGF to support cell viability. […] Shortly, cells were plated in 384-well plates (Greiner Bio-One) at 2000-3000 cells per well in technical triplicate. Seven different concentrations of TKIs or DMSO vehicle were added to reach a final volume of 40 μL per well. After 72 hours, 11 μL of Cell Titer Glo (Promega) was added to each well. Plates were incubated for a minimum of 10 minutes, and bioluminescence was determined using a FLUOstar OPTIMA plate reader (BMG LABTECH). Raw bioluminescence values were normalized to DMSO control treated cells, and values were plotted in GraphPad Prism. […] Drug screens were performed in technical triplicate on each plate and either duplicate or triplicate biological replicates. […] Statistical differences between groups were determined by ANOVA as described in the figure legends.

[7] = target: T7, EGFR A763insLQEA (Homo sapiens, UniProt P00533, INS763LQEA); settings: Classical-Like, 72 hours
T7 construct: expressed in transfected cells; host or cells: Ba/F3 cells, retroviral pBabe-Puro vector
Procedure: (§6) Data represent the ratio of the IC50 value for a given TKI for cells with a classical-like EGFR mutation to the IC50 value for cells with wildtype EGFR.
as §2
(§7) After 48-72 hours of transduction, 2 μg/ml puromycin (Invitrogen) was added to Ba/F3 cell lines in complete RPMI. To select for EGFR positive cell lines, cells were stained with PE-EGFR (Biolegend) and sorted by FACS. After sorting, EGFR positive cells were maintained in RPMI containing 10% FBS, 1% penicillin/streptomycin, and 1 ng/ml EGF to support cell viability. […] Shortly, cells were plated in 384-well plates (Greiner Bio-One) at 2000-3000 cells per well in technical triplicate. Seven different concentrations of TKIs or DMSO vehicle were added to reach a final volume of 40 μL per well. After 72 hours, 11 μL of Cell Titer Glo (Promega) was added to each well. Plates were incubated for a minimum of 10 minutes, and bioluminescence was determined using a FLUOstar OPTIMA plate reader (BMG LABTECH). Raw bioluminescence values were normalized to DMSO control treated cells, and values were plotted in GraphPad Prism. […] Drug screens were performed in technical triplicate on each plate and either duplicate or triplicate biological replicates.

[8] = target: T8, EGFR L858R/C797S (Homo sapiens, UniProt P00533, C797S/L858R); settings: Ba/F3 cells, EGFR L858R/C797S (PACC), Mut/WT
T8 construct: expressed in transfected cells; host or cells: Ba/F3
Procedure: as §1, §2, §3

[9] = target: T9, EGFR L861Q (Homo sapiens, UniProt P00533, L861Q); settings: Classical-Like, 72 hours
T9 construct: expressed in transfected cells; host or cells: Ba/F3 cells, retroviral pBabe-Puro vector

[10] = target: T10, EGFR T790M (Homo sapiens, UniProt P00533, T790M); settings: T790M-like-3S, 72 hours
T10 construct: expressed in transfected cells; host or cells: Ba/F3

[11] = target: T11, EGFR G719S (Homo sapiens, UniProt P00533, G719S); settings: Ba/F3 cells, EGFR G719S (PACC), Mut/WT
T11 construct: expressed in transfected cells; host or cells: Ba/F3

[12] = target: T12, EGFR E709K L858R (Homo sapiens, UniProt P00533, E709K/L858R); settings: Classical-Like, 72 hours
T12 construct: expressed in transfected cells; host or cells: Ba/F3 cells, retroviral pBabe-Puro vector

[13] = target: T13, EGFR Ex19del/T790M/L792H (Homo sapiens, UniProt P00533, DEL746-750/L792H/T790M); settings: T790M-like-3R, 72 hours
T13 construct: expressed in transfected cells; host or cells: Ba/F3
Procedure: as §4, §2, §5

[14] = target: T14, EGFR D761N (Homo sapiens, UniProt P00533, D761N); settings: Classical-Like, 72 hours
T14 construct: expressed in transfected cells; host or cells: Ba/F3 cells, retroviral pBabe-Puro vector
Procedure: as §6, §2, §7

[15] = target: T15, EGFR S720P (Homo sapiens, UniProt P00533, S720P); settings: Classical-Like, 72 hours
T15 construct: expressed in transfected cells; host or cells: Ba/F3 cells, retroviral pBabe-Puro vector (vector made by GeneScript from EGFR WT)
Procedure: as §6, §2, §7

[16] = target: T16, EGFR A763insFQEA (Homo sapiens, UniProt P00533, INS763FQEA); settings: Classical-Like, 72 hours
T16 construct: expressed in transfected cells; host or cells: Ba/F3 cells, retroviral pBabe-Puro vector
Procedure: as §6, §2, §7

[17] = target: T17, EGFR G719A T790M (Homo sapiens, UniProt P00533, G719A/T790M); settings: T790M-like-3S, 72 hours
T17 construct: expressed in transfected cells; host or cells: Ba/F3
Procedure: (§8) Data represent the ratio of the IC50 value for a given TKI for cells with a T790M-like-3S EGFR mutation to the IC50 value for cells with wildtype EGFR.
as §2, §3

[18] = target: T18, EGFR S768dupSVD (Homo sapiens, UniProt P00533, DUP768-770); settings: Ex20, 72 hours
T18 construct: expressed in transfected cells; host or cells: Ba/F3 cells, retroviral pBabe-Puro vector

[19] = target: T19, EGFR Ex19del T790M (Homo sapiens, UniProt P00533, DEL746-750/T790M); settings: T790M-like-3S, 72 hours
T19 construct: expressed in transfected cells; host or cells: Ba/F3
Procedure: as §8, §2, §3

[20] = target: T20, EGFR L858R T790M L792H (Homo sapiens, UniProt P00533, L792H/L858R/T790M); settings: T790M-like-3S, 72 hours
T20 construct: expressed in transfected cells; host or cells: Ba/F3
Procedure: as §8, §2, §3

[21] = target: T21, EGFR L858R/L718V (Homo sapiens, UniProt P00533, L718V/L858R); settings: Ba/F3 cells, EGFR L858R/L718V (PACC), Mut/WT
T21 construct: host or cells: Ba/F3
Procedure: as §1, §2, §3

[22] = target: T22, EGFR E709A (Homo sapiens, UniProt P00533, E709A); settings: Ba/F3 cells, EGFR E709A (PACC), Mut/WT
T22 construct: expressed in transfected cells; host or cells: Ba/F3
Procedure: as §1, §2, §3

[23] = target: T23, EGFR G724S (Homo sapiens, UniProt P00533, G724S); settings: Ba/F3 cells, EGFR G724S (PACC), Mut/WT
T23 construct: expressed in transfected cells; host or cells: Ba/F3

[24] = target: T24, EGFR Ex19del/C797S (Homo sapiens, UniProt P00533, C797S/DEL746-750); settings: Ba/F3 cells, EGFR Ex19del/C797S (PACC), Mut/WT
T24 construct: expressed in transfected cells; host or cells: Ba/F3
Procedure: as §1, §2, §3

[25] = target: T25, EGFR N771dupN (Homo sapiens, UniProt P00533, DUP771-771); settings: Ex20, 72 hours
T25 construct: expressed in transfected cells; host or cells: Ba/F3 cells, retroviral pBabe-Puro vector

[26] = target: T26, EGFR E709K (Homo sapiens, UniProt P00533, E709K); settings: Ba/F3 cells, EGFR E709K (PACC), Mut/WT
T26 construct: expressed in transfected cells; host or cells: Ba/F3

[27] = target: T27, EGFR Ex19del L718V (Homo sapiens, UniProt P00533, DEL746-750/L718V); settings: Ba/F3 cells, EGFR Ex19del L718V (PACC), Mut/WT
T27 construct: expressed in transfected cells; host or cells: Ba/F3

SMILES | ratio of IC50 for cells with mutant EGFR to IC50 for cells with wildtype EGFR (Mut/WT) [1] | ratio of the IC50 value for cells with a PACC EGFR mutation to the IC50 value for cells with wildtype EGFR [2] | ratio of the IC50 value for cells with a PACC EGFR mutation to the IC50 value for cells with wildtype EGFR [3] | ratio of the IC50 value for cells with a PACC EGFR mutation to the IC50 value for cells with wildtype EGFR [4] | ratio of the IC50 value for cells with a PACC EGFR mutation to the IC50 value for cells with wildtype EGFR [5] | ratio of IC50 for cells with mutant EGFR to IC50 for cells with wildtype EGFR (Mut/WT) [6] | ratio of IC50 for cells with mutant EGFR to IC50 for cells with wildtype EGFR (Mut/WT) [7] | ratio of the IC50 value for cells with a PACC EGFR mutation to the IC50 value for cells with wildtype EGFR [8] | ratio of IC50 for cells with mutant EGFR to IC50 for cells with wildtype EGFR (Mut/WT) [9] | ratio of IC50 for cells with mutant EGFR to IC50 for cells with wildtype EGFR (Mut/WT) [10] | ratio of the IC50 value for cells with a PACC EGFR mutation to the IC50 value for cells with wildtype EGFR [11] | ratio of IC50 for cells with mutant EGFR to IC50 for cells with wildtype EGFR (Mut/WT) [12] | ratio of IC50 for cells with mutant EGFR to IC50 for cells with wildtype EGFR (Mut/WT) [13] | ratio of IC50 for cells with mutant EGFR to IC50 for cells with wildtype EGFR (Mut/WT) [14] | ratio of IC50 for cells with mutant EGFR to IC50 for cells with wildtype EGFR (Mut/WT) [15] | ratio of IC50 for cells with mutant EGFR to IC50 for cells with wildtype EGFR (Mut/WT) [16] | ratio of IC50 for cells with mutant EGFR to IC50 for cells with wildtype EGFR (Mut/WT) [17] | ratio of IC50 for cells with mutant EGFR to IC50 for cells with wildtype EGFR (Mut/WT) [18] | ratio of IC50 for cells with mutant EGFR to IC50 for cells with wildtype EGFR (Mut/WT) [19] | ratio of IC50 for cells with mutant EGFR to IC50 for cells with wildtype EGFR (Mut/WT) [20] | further results
C=CC(=O)N1CC[C@@H](Oc2nc(Nc3ccc(N4CCC(N5CCN(C)CC5)CC4)cc3)c(C(N)=O)nc2CC)C1 [Naquotinib] | 0.1409 | 0.1344 | 0.5339 | 0.5426 | 1.137 | 14.64 | 0.3419 | 5.266 | 0.1616 | 0.4037 | 0.2727 | 0.0818 | 4.634 | 0.1966 | 0.03397 | 0.1912 | 0.08702 | 1.135 | 0.009604 | 0.03529 | ratio of the IC50 value for cells with a PACC EGFR mutation to the IC50 value for cells with wildtype EGFR [21]: 3.358; ratio of the IC50 value for cells with a PACC EGFR mutation to the IC50 value for cells with wildtype EGFR [22]: 0.0743; ratio of the IC50 value for cells with a PACC EGFR mutation to the IC50 value for cells with wildtype EGFR [23]: 1.174; ratio of the IC50 value for cells with a PACC EGFR mutation to the IC50 value for cells with wildtype EGFR [24]: 11.45; ratio of IC50 for cells with mutant EGFR to IC50 for cells with wildtype EGFR (Mut/WT) [25]: 3.012; ratio of the IC50 value for cells with a PACC EGFR mutation to the IC50 value for cells with wildtype EGFR [26]: 0.2663; ratio of the IC50 value for cells with a PACC EGFR mutation to the IC50 value for cells with wildtype EGFR [27]: 0.1035
Cc1cc(C(=O)Nc2nc3cccc(Cl)c3n2[C@@H]2CCCCN(C(=O)/C=C/CN(C)C)C2)ccn1 [Nazartinib] | 0.04811 | 0.06775 | 0.4195 | 1.157 | 0.6604 | 5.557 | 0.05507 | 3.46 | 0.03861 | 0.1166 | 0.08165 | 0.01992 | 4.292 | 0.0009686 | 0.005619 | 0.05676 | 0.02653 | 0.4008 | 0.01265 | 0.02884 | ratio of the IC50 value for cells with a PACC EGFR mutation to the IC50 value for cells with wildtype EGFR [21]: 1.03; ratio of the IC50 value for cells with a PACC EGFR mutation to the IC50 value for cells with wildtype EGFR [22]: 0.07784; ratio of the IC50 value for cells with a PACC EGFR mutation to the IC50 value for cells with wildtype EGFR [23]: 0.869; ratio of the IC50 value for cells with a PACC EGFR mutation to the IC50 value for cells with wildtype EGFR [24]: 3.067; ratio of IC50 for cells with mutant EGFR to IC50 for cells with wildtype EGFR (Mut/WT) [25]: 0.371; ratio of the IC50 value for cells with a PACC EGFR mutation to the IC50 value for cells with wildtype EGFR [26]: 0.0309; ratio of the IC50 value for cells with a PACC EGFR mutation to the IC50 value for cells with wildtype EGFR [27]: 0.04632
